Test results as given in PubChem BioAssay (NCI).
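How tested: cells in 96-well plates exposed to compound for 48 hours at five concentrations. GI50: concentration for 50% inhibition of growth. TGI is the concentration that stops growth completely.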

Key:
Assay in all cases: NCI-60 cell line screen, 48 h
BT-549 breast = tested on: BT-549 breast
M14 melanoma = tested on: M14 melanoma
ACHN renal = tested on: ACHN renal
NCI/ADR-RES ovarian = tested on: NCI/ADR-RES ovarian
SNB-75 CNS = tested on: SNB-75 CNS
NCI-H460 lung = tested on: NCI-H460 lung
NCI-H522 lung = tested on: NCI-H522 lung
IGROV1 ovarian = tested on: IGROV1 ovarian
A498 renal = tested on: A498 renal
MCF7 breast = tested on: MCF7 breast
CCRF-CEM leukemia = tested on: CCRF-CEM leukemia
CAKI-1 renal = tested on: CAKI-1 renal
T-47D breast = tested on: T-47D breast
NCI-H23 lung = tested on: NCI-H23 lung
OVCAR-3 ovarian = tested on: OVCAR-3 ovarian
COLO 205 colon = tested on: COLO 205 colon
DU-145 prostate = tested on: DU-145 prostate
HL-60(TB) leukemia = tested on: HL-60(TB) leukemia
SF-539 CNS = tested on: SF-539 CNS
RXF 393 renal = tested on: RXF 393 renal
MOLT-4 leukemia = tested on: MOLT-4 leukemia
SW-620 colon = tested on: SW-620 colon
SR leukemia = tested on: SR leukemia
EKVX NSCLC = tested on: EKVX NSCLC
NCI-H226 lung = tested on: NCI-H226 lung
SK-MEL-2 melanoma = tested on: SK-MEL-2 melanoma
OVCAR-4 ovarian = tested on: OVCAR-4 ovarian
U251 CNS = tested on: U251 CNS
HT29 colon = tested on: HT29 colon
UO-31 renal = tested on: UO-31 renal
TK-10 renal = tested on: TK-10 renal
UACC-257 melanoma = tested on: UACC-257 melanoma
OVCAR-5 ovarian = tested on: OVCAR-5 ovarian
UACC-62 melanoma = tested on: UACC-62 melanoma
786-0 renal = tested on: 786-0 renal
SK-OV-3 ovarian = tested on: SK-OV-3 ovarian
SN12C renal = tested on: SN12C renal
HS 578T breast = tested on: HS 578T breast
HCT-15 colon = tested on: HCT-15 colon
HCC-2998 colon = tested on: HCC-2998 colon
SNB-19 CNS = tested on: SNB-19 CNS
PC-3 prostate = tested on: PC-3 prostate
HOP-62 NSCLC = tested on: HOP-62 NSCLC
OVCAR-8 ovarian = tested on: OVCAR-8 ovarian
RPMI-8226 leukemia = tested on: RPMI-8226 leukemia
LOX IMVI melanoma = tested on: LOX IMVI melanoma
MALME-3M melanoma = tested on: MALME-3M melanoma
SK-MEL-5 melanoma = tested on: SK-MEL-5 melanoma
A549 NSCLC = tested on: A549 NSCLC
SK-MEL-28 melanoma = tested on: SK-MEL-28 melanoma
MDA-MB-231 breast = tested on: MDA-MB-231 breast
HOP-92 NSCLC = tested on: HOP-92 NSCLC
SF-268 CNS = tested on: SF-268 CNS
HCT-116 colon = tested on: HCT-116 colon
SF-295 CNS = tested on: SF-295 CNS

C#CCNC(=O)[C@H](CC)[C@H]1CC[C@H](C)[C@H]([C@@H](C)[C@H](O)[C@H](C)C(=O)[C@H](CC)C2O[C@]3(C=CC(=O)[C@]4(CC[C@@](C)([C@H]5CC[C@](O)(CC)[C@H](C)O5)O4)O3)[C@H](C)C[C@@H]2C)O1 (stereo not given in full) was tested, and the GI50 (BT-549 breast) was 1.83 µM, the TGI (BT-549 breast) was 3.93 µM and the GI50 (M14 melanoma) was 1.86 µM. The TGI (M14 melanoma) was 4.57 µM, the GI50 (ACHN renal) was 2.94 µM and the TGI (ACHN renal) was 14.6 µM. The GI50 (NCI/ADR-RES ovarian) was 2.26 µM, the TGI (NCI/ADR-RES ovarian) was 7.72 µM and the GI50 (SNB-75 CNS) was 1.39 µM. The TGI (SNB-75 CNS) was 3.36 µM, the GI50 (NCI-H460 lung) was 2.55 µM and the TGI (NCI-H460 lung) was 6.94 µM. For the same molecule, the GI50 (NCI-H522 lung) was 1.87 µM, the TGI (NCI-H522 lung) was 5.39 µM and the GI50 (IGROV1 ovarian) was 2.03 µM. The TGI (IGROV1 ovarian) was 7.92 µM, the GI50 (A498 renal) was 2.19 µM and the TGI (A498 renal) was 6.07 µM. For the same molecule, the GI50 (MCF7 breast) was 2.67 µM, the TGI (MCF7 breast) was 12.2 µM and the GI50 (CCRF-CEM leukemia) was 2.76 µM. The TGI (CCRF-CEM leukemia) was 19.3 µM, the GI50 (CAKI-1 renal) was 1.78 µM and the TGI (CAKI-1 renal) was 7.02 µM. For the same molecule, the GI50 (T-47D breast) was 2.36 µM, the TGI (T-47D breast) was 9 µM and the GI50 (NCI-H23 lung) was 2.83 µM. For the same molecule, the TGI (NCI-H23 lung) was over 100 µM, the GI50 (OVCAR-3 ovarian) was 1.86 µM and the TGI (OVCAR-3 ovarian) was 3.98 µM. For the same molecule, the GI50 (COLO 205 colon) was 1.84 µM, the TGI (COLO 205 colon) was 3.52 µM and the GI50 (DU-145 prostate) was 2.41 µM. For the same molecule, the TGI (DU-145 prostate) was 6.32 µM, the GI50 (HL-60(TB) leukemia) was 2.28 µM and the TGI (HL-60(TB) leukemia) was 5.45 µM. The GI50 (SF-539 CNS) was 1.75 µM, the TGI (SF-539 CNS) was 3.36 µM and the GI50 (RXF 393 renal) was 2.48 µM. The TGI (RXF 393 renal) was 7.63 µM, the GI50 (MOLT-4 leukemia) was 2.44 µM and the TGI (MOLT-4 leukemia) was 8.76 µM. The GI50 (SW-620 colon) was 3.12 µM, the TGI (SW-620 colon) was over 100 µM and the GI50 (SR leukemia) was 1.61 µM. It also gave a TGI (SR leukemia) of 5.37 µM, a GI50 (EKVX NSCLC) of 2.59 µM and a TGI (EKVX NSCLC) of over 100 µM. The GI50 (NCI-H226 lung) was 2.94 µM, the TGI (NCI-H226 lung) was 22.6 µM and the GI50 (SK-MEL-2 melanoma) was 2.44 µM. It also gave a TGI (SK-MEL-2 melanoma) of 7.31 µM, a GI50 (OVCAR-4 ovarian) of 2.91 µM and a TGI (OVCAR-4 ovarian) of over 100 µM. The GI50 (U251 CNS) was 1.88 µM, the TGI (U251 CNS) was 3.93 µM and the GI50 (HT29 colon) was 2.26 µM. The TGI (HT29 colon) was 5.46 µM, the GI50 (UO-31 renal) was 2.01 µM and the TGI (UO-31 renal) was 7.81 µM. It also gave a GI50 (TK-10 renal) of 2.35 µM, a TGI (TK-10 renal) of 7.74 µM and a GI50 (UACC-257 melanoma) of 1.94 µM. The TGI (UACC-257 melanoma) was 4.88 µM, the GI50 (OVCAR-5 ovarian) was 2.62 µM and the TGI (OVCAR-5 ovarian) was 8.16 µM. For the same molecule, the GI50 (UACC-62 melanoma) was 1.68 µM, the TGI (UACC-62 melanoma) was 4.28 µM and the GI50 (786-0 renal) was 2.67 µM. The TGI (786-0 renal) was 8.19 µM, the GI50 (SK-OV-3 ovarian) was 3.42 µM and the TGI (SK-OV-3 ovarian) was over 100 µM. It also gave a GI50 (SN12C renal) of 2.29 µM, a TGI (SN12C renal) of 6.58 µM and a GI50 (HS 578T breast) of 2.06 µM. For the same molecule, the TGI (HS 578T breast) was 6.71 µM, the GI50 (HCT-15 colon) was 2.61 µM and the TGI (HCT-15 colon) was 7.81 µM. It also gave a GI50 (HCC-2998 colon) of 2.35 µM, a TGI (HCC-2998 colon) of 5.89 µM and a GI50 (SNB-19 CNS) of 2.36 µM. For the same molecule, the TGI (SNB-19 CNS) was 7.96 µM, the GI50 (PC-3 prostate) was 2 µM and the TGI (PC-3 prostate) was 8.78 µM. For the same molecule, the GI50 (HOP-62 NSCLC) was 1.99 µM, the TGI (HOP-62 NSCLC) was 4.91 µM and the GI50 (OVCAR-8 ovarian) was 2.96 µM. The TGI (OVCAR-8 ovarian) was 35.8 µM, the GI50 (RPMI-8226 leukemia) was 1.77 µM and the TGI (RPMI-8226 leukemia) was 4.9 µM. The GI50 (LOX IMVI melanoma) was 2.06 µM, the TGI (LOX IMVI melanoma) was 4.83 µM and the GI50 (MALME-3M melanoma) was 2.05 µM. For the same molecule, the TGI (MALME-3M melanoma) was 6.15 µM, the GI50 (SK-MEL-5 melanoma) was 1.69 µM and the TGI (SK-MEL-5 melanoma) was 3.11 µM. For the same molecule, the GI50 (A549 NSCLC) was 2.61 µM, the TGI (A549 NSCLC) was 11.2 µM and the GI50 (SK-MEL-28 melanoma) was 1.87 µM. The TGI (SK-MEL-28 melanoma) was 3.96 µM, the GI50 (MDA-MB-231 breast) was 1.92 µM and the TGI (MDA-MB-231 breast) was 5.14 µM. It also gave a GI50 (HOP-92 NSCLC) of 1.37 µM, a TGI (HOP-92 NSCLC) of 6.62 µM and a GI50 (SF-268 CNS) of 2.08 µM. The TGI (SF-268 CNS) was 6.37 µM, the GI50 (HCT-116 colon) was 2.43 µM and the TGI (HCT-116 colon) was 7.66 µM. For the same molecule, the GI50 (SF-295 CNS) was 1.57 µM and the TGI (SF-295 CNS) was 3.56 µM.
